US12655116B2, “Substituted isophthalic acid diamides” (Bayer Aktiengesellschaft, priority 2020, dated 2026)

Assays:
MATIN [1] = assay: Post-emergence herbicidal action against MATIN; assay type: in vivo, Matricaria inodora
Summary of the method: (§1)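 Greenhouse pot plants in sandy loam were sprayed at the one-leaf stage, 2 to 3 weeks after sowing, with WP or EC formulations as aqueous suspension or emulsion (600 to 800 l/ha water, 0.2% wetting agent). About 3 weeks later, damage was scored visually against untreated controls as % action (100% = dead, 0% = like control).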

POLCO = assay: Pre-emergence herbicidal action against POLCO; assay type: in vivo, Polygonum convolvulus; conditions: dosage 80 g/ha
Summary of the method: (§2)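 Visual rating at 3 weeks vs untreated pots; 0–100% scale, 100% = plants died. Treatment: aqueous WP/EC spray onto covering soil, 600–800 l/ha, 0.2% wetter, seeds in sandy loam.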

VIOTR [2] = assay: Pre-emergence herbicidal action against VIOTR; assay type: in vivo, Viola tricolor
Summary of the method: as §2

DIGSA [3] = assay: Pre-emergence herbicidal action against DIGSA; assay type: in vivo, Digitaria sanguinalis
Summary of the method: as §2

PHBPU [4] = assay: Pre-emergence herbicidal action against PHBPU; assay type: in vivo, Pharbitis purpurea; conditions: dosage 80 g/ha
Summary of the method: as §2

ALOMY [5] = assay: Pre-emergence herbicidal action against ALOMY; assay type: in vivo, Alopecurus myosuroides; conditions: pre-emergence
Summary of the method: as §2

LOLRI = assay: Pre-emergence herbicidal action against LOLRI; assay type: in vivo, Lolium rigidum; conditions: 80 g/ha
Summary of the method: as §2

ECHCG [6] = assay: Pre-emergence herbicidal action against ECHCG; assay type: in vivo, Echinochloa crus-galli
Summary of the method: as §2

MATIN [7] = assay: Pre-emergence herbicidal action against MATIN; assay type: in vivo, Matricaria inodora
Summary of the method: as §2

ECHCG [8] = assay: Post-emergence herbicidal action against ECHCG; assay type: in vivo, Echinochloa crus-galli; conditions: dosage 20 g/ha
Summary of the method: as §1

SETVI [9] = assay: Pre-emergence herbicidal action against SETVI; assay type: in vivo, Setaria viridis; conditions: dosage 80 g/ha
Summary of the method: as §2

VERPE [10] = assay: Pre-emergence herbicidal action against VERPE; assay type: in vivo, Veronica persica
Summary of the method: as §2

ALOMY [11] = assay: Post-emergence herbicidal action against ALOMY; assay type: in vivo, Alopecurus myosuroides; conditions: Alopecurus myosuroides, 504 h, visual assessment about 3 weeks after treatment vs untreated controls
Summary of the method: as §1

VERPE [12] = assay: Post-emergence herbicidal action against VERPE; assay type: in vivo, Veronica persica
Summary of the method: as §1

ABUTH [13] = assay: Pre-emergence herbicidal action against ABUTH; assay type: in vivo, Abutilon theophrasti
Summary of the method: as §2

VIOTR [14] = assay: Post-emergence herbicidal action against VIOTR; assay type: in vivo, Viola tricolor
Summary of the method: as §1

ABUTH [15] = assay: Post-emergence herbicidal action against ABUTH; assay type: in vivo, Abutilon theophrasti; conditions: visual assessment about 3 weeks after treatment vs untreated controls
Summary of the method: as §1

AMARE [16] = assay: Post-emergence herbicidal action against AMARE; assay type: in vivo, Amaranthus retroflexus; conditions: 20 g/ha, visual assessment about 3 weeks after treatment, 100% = plants have died, 0% = like control plants
Summary of the method: as §1

AMARE [17] = assay: Pre-emergence herbicidal action against AMARE; assay type: in vivo, Amaranthus retroflexus
Summary of the method: as §2

PHBPU [18] = assay: Post-emergence herbicidal action against PHBPU; assay type: in vivo, Pharbitis purpurea
Summary of the method: as §1

DIGSA [19] = assay: Post-emergence herbicidal action against DIGSA; assay type: in vivo, Digitaria sanguinalis
Summary of the method: as §1

AVEFA = assay: Pre-emergence herbicidal action against AVEFA; assay type: in vivo, Avena fatua; conditions: 80 g/ha, pre-emergence
Summary of the method: as §2

SETVI [20] = assay: Post-emergence herbicidal action against SETVI; assay type: in vivo, Setaria viridis
Summary of the method: as §1

[21] = Tripleurospermum inodorum, 504 h, dosage 20 g/ha
[22] = 80 g/ha, scored visually after 3 weeks vs untreated controls (100% = plants have died, 0% = like control plants)

CCCNC(=O)c1c(C(F)(F)F)ccc(C(=O)Nc2nnnn2C)c1C [Example 1-32]
80%: pest or weed control at 5 g/ha (MATIN [1]; Tripleurospermum inodorum, 504 h, dosage 5 g/ha) | pest or weed control at 80 g/ha (PHBPU [4]; Ipomoea purpurea, 504 h) | pest or weed control at 20 g/ha (ALOMY [5]; Alopecurus myosuroides, 504 h, 20 g/ha, scored visually after 3 weeks, 100% = plants have died, 0% = like control plants) | pest or weed control at 20 g/ha (ECHCG [6]; Echinochloa crus-galli, 504 h, 20 g/ha) | pest or weed control at 20 g/ha (VERPE [10]; Veronica persica, 504 h, dosage 20 g/ha) | pest or weed control at 5 g/ha (ALOMY [11]; dosage 5 g/ha) | pest or weed control at 20 g/ha (VIOTR [14]; Viola tricolor, 504 h, 20 g/ha)
100%: pest or weed control at 80 g/ha (POLCO; Fallopia convolvulus, 504 h) | pest or weed control at 80 g/ha (VIOTR [2]; Viola tricolor, 504 h, dosage 80 g/ha) | pest or weed control at 20 g/ha (DIGSA [3]; Digitaria sanguinalis, 504 h, dosage 20 g/ha) | pest or weed control at 80 g/ha (DIGSA [3]; Digitaria sanguinalis, 504 h, dosage 80 g/ha) | pest or weed control at 80 g/ha (ALOMY [5]; Alopecurus myosuroides, 504 h, 80 g/ha, scored visually after 3 weeks vs untreated controls (100% = plants have died, 0% = like control plants)) | pest or weed control at 80 g/ha (ECHCG [6]; Echinochloa crus-galli, 504 h, 80 g/ha) | pest or weed control at 20 g/ha (MATIN [7]; [21]) | pest or weed control at 80 g/ha (MATIN [7]; Tripleurospermum inodorum, 504 h, dosage 80 g/ha) | pest or weed control at 80 g/ha (SETVI [9]; Setaria viridis, 504 h) | pest or weed control at 80 g/ha (VERPE [10]; Veronica persica, 504 h, dosage 80 g/ha) | pest or weed control at 80 g/ha (ABUTH [13]; Abutilon theophrasti, 504 h, 80 g/ha, scored visually after 3 weeks vs untreated controls (100% = plants have died, 0% = like control plants)) | pest or weed control at 20 g/ha (ABUTH [13]; Abutilon theophrasti, 504 h, dosage 20 g/ha, scored visually after 3 weeks vs untreated controls, 100% = plants have died, 0% = like control plants, read-out: Pre-emergence action against ABUTH (herbicidal activity in percent)) | pest or weed control at 20 g/ha (AMARE [17]; Amaranthus retroflexus, 504 h, 20 g/ha, scored visually after 3 weeks vs untreated controls, 100% = plants have died, 0% = like control plants) | pest or weed control at 80 g/ha (AMARE [17]; Amaranthus retroflexus, 504 h, 80 g/ha, scored visually after 3 weeks vs untreated controls, 100% = plants have died, 0% = like control plants)
90%: pest or weed control at 20 g/ha (MATIN [1]; [21]) | pest or weed control at 80 g/ha (LOLRI; Lolium rigidum, 504 h) | pest or weed control at 20 g/ha (ECHCG [8]; Echinochloa crus-galli, 504 h) | pest or weed control at 20 g/ha (ALOMY [11]; dosage 20 g/ha) | pest or weed control at 20 g/ha (VERPE [12]; Veronica persica, 504 h, 20 g/ha) | pest or weed control at 5 g/ha (ABUTH [15]; Abutilon theophrasti, 504 h, dosage 5 g/ha) | pest or weed control at 20 g/ha (ABUTH [15]; Abutilon theophrasti, 504 h, dosage 20 g/ha) | pest or weed control at 20 g/ha (AMARE [16]; Amaranthus retroflexus, 504 h)

Cn1nnnc1NC(=O)c1ccc(C(F)(F)F)c(C(=O)NCC2CC2)c1C1CC1 [Example 1-289]
90%: Post-emergence action against PHBPU in % (PHBPU [18]; dosage 20 g/ha) | Post-emergence action against DIGSA in % (DIGSA [19]; 5 g/ha) | Post-emergence action against DIGSA (DIGSA [19]; 20 g/ha) | Pre-emergence action against ALOMY (herbicidal activity) (ALOMY [5]; [22]) | Pre-emergence action against MATIN in % (MATIN [7]; dosage 20 g/ha) | Post-emergence action against VERPE in % (VERPE [12]; 20 g/ha) | Post-emergence action against VIOTR in % (VIOTR [14]; 20 g/ha) | Post-emergence action against SETVI in % (SETVI [20]; dosage 20 g/ha) | Post-emergence action at 20 g/ha against AMARE in % (AMARE [16]) | Pre-emergence action against AMARE in % (AMARE [17]; 20 g/ha, scored visually after 3 weeks vs untreated controls, 100% = plants have died, 0% = like control plants)
100%: Pre-emergence action against VIOTR in % (VIOTR [2]; dosage 20 g/ha) | Pre-emergence action against VIOTR in % (VIOTR [2]; dosage 80 g/ha) | Pre-emergence action against DIGSA in % (DIGSA [3]; dosage 20 g/ha) | Pre-emergence action against DIGSA in % (DIGSA [3]; dosage 80 g/ha) | Pre-emergence action against ECHCG in % (ECHCG [6]; 80 g/ha) | Pre-emergence action against MATIN in % (MATIN [7]; dosage 80 g/ha) | Pre-emergence action against VERPE in % (VERPE [10]; dosage 80 g/ha) | Pre-emergence action against ABUTH (herbicidal activity) (ABUTH [13]; [22]) | Pre-emergence action against ABUTH (herbicidal activity in percent) (ABUTH [13]; dosage 20 g/ha, scored visually after 3 weeks vs untreated controls, 100% = plants have died, 0% = like control plants) | Pre-emergence action against AMARE in % (AMARE [17]; [22])
80%: Post-emergence action against MATIN in % (MATIN [1]; dosage 20 g/ha) | Pre-emergence action against POLCO in % (POLCO) | Post-emergence action against PHBPU in % (PHBPU [18]; dosage 5 g/ha) | Pre-emergence action against PHBPU in % (PHBPU [4]) | Pre-emergence action against LOLRI in % (LOLRI) | Pre-emergence action against ECHCG in % (ECHCG [6]; 20 g/ha) | Post-emergence action against ECHCG in % (ECHCG [8]) | Pre-emergence action against SETVI in % (SETVI [9]) | Post-emergence action against VERPE in % (VERPE [12]; 5 g/ha) | Pre-emergence action against AVEFA in % (AVEFA) | Post-emergence action against VIOTR in % (VIOTR [14]; 5 g/ha) | Post-emergence action against SETVI in % (SETVI [20]; dosage 5 g/ha) | Post-emergence action against ABUTH in % (ABUTH [15]; dosage 5 g/ha) | Post-emergence action against ABUTH in % (ABUTH [15]; dosage 20 g/ha)
